Drawing on US9988373B2, “Nitrogen-containing six-membered cyclic derivatives and pharmaceutical composition comprising the same” (SHIONOGI & CO., LTD., priority 2013, dated 2018), this text covers IC50 for 61 molecules.

A word on the IC50: it is the concentration that gives 50% inhibition. A lower IC50 goes with greater potency.

For the first assay, the target named is T1, human P2X7 receptor (Homo sapiens, UniProt Q99572, R270H).
T1 construct: expressed in transfected cells
T1 sequence (Q99572 1-595 R270H): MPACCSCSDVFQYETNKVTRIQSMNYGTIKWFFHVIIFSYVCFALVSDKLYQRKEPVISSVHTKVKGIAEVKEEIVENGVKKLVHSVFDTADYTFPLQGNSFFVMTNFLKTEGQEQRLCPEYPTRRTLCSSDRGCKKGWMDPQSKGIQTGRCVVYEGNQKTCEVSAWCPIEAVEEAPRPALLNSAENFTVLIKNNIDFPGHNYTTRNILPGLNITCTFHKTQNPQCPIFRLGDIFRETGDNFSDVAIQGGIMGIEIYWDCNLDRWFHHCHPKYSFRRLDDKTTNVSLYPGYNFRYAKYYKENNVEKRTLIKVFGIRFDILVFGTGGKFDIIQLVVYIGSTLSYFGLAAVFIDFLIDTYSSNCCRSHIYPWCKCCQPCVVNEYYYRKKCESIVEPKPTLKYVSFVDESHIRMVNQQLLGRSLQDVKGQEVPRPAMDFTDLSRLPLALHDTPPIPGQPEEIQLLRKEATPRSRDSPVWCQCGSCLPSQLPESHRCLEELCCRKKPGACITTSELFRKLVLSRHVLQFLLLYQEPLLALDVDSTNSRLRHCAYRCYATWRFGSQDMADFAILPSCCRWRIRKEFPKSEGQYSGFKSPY
The assay can be described thus: Evaluation of a human P2X7 receptor inhibitory activity (Yo-Pro uptake, BzATP stimulation, FLIPR TETRA). The assay is classed as cell-based. The settings on record: antagonistic activity for the human P2X7 receptor, 1321N1 cell transfected with the human P2X7 receptor gene, Yo-Pro fluorescence. The protocol: Test Example 1 Evaluation of a Human P2X7 Receptor Inhibitory Activity
Stably expressing cell line (1321N1 cell transfected with the human P2X7 receptor gene (GenBank accession number NM_002562.5 including T606C and G952A SNP)) was used. The cells were seeded in a 384-well microtiter plate at a concentration of 8000 cells/well and cultured in the medium (10% fetal bovine serum, 25 mM HEPES, 1% penicillin and streptomycin in DMEM) for one day at 37° C. under 5% carbon dioxide atmosphere. After replacing with 20 μL of the HBSS buffer (20 mM HEPES. 55.6 mM D-glucose, 1×HBSS(−), pH 7.4-7.5), 15 μL of 17.3 μM Yo-Pro solution in the HBSS buffer was added. The plate was placed in high-throughput cellular screening system FLIPR TETRA (Molecullar Devices, LLC.) and 15 μL of 130 μM BzATP solution in the HBSS buffer was added. Measurement of fluorescence intensity by FLIPR TETRA was started. After eight minutes, 15 μL of DMSO solutions containing different concentrations of the compound of the present invention as prepared by dilution with the HBSS buffer were dispensed to each well through the built-in automatic dispenser, and the measurement of fluorescence intensity was continued for 20 minutes. The maximum fluorescence intensity without the compound of the present invention is calculated as 0% inhibition and the maximum fluorescence intensity when the reference compound was added is calculated as 100% inhibition. Changing values of fluorescence intensity by the compound of the present invention were calculated by difference between maximum and minimum fluorescence intensity for 20 minutes. Inhibition ratios (%) were calculated from the following equation:
[formula] IC50 was calculated using logistic approximation.
The molecule `Cc1cn(Cc2ccccc2)c(-c2cccc(C(F)(F)F)c2Cl)nc1=O` [II-030] displayed an IC50 of 210 nM.
`O=c1nc(-c2cccc(C(F)(F)F)c2Cl)n(Cc2ccccc2)cc1F` [II-031] returned an IC50 of 58 nM.
The molecule `COc1cn(CC#N)c(-c2cccc(C(F)(F)F)c2Cl)nc1=O` [II-032] showed an IC50 of 1000 nM.
On the same count and under the same terms, to `O=c1nc(-c2cccc(C(F)(F)F)c2Cl)n(Cc2ccccc2)cc1OCC(F)(F)F` [II-033] belongs 60 nM.
On to `Nc1cn(Cc2ccccc2)c(-c2cccc(C(F)(F)F)c2Cl)nc1=O` [II-045], for which inhibition was half-maximal at 270 nM (IC50).
As to `CC(=O)Nc1cn(Cc2ccccc2)c(-c2cccc(C(F)(F)F)c2Cl)nc1=O` [II-046], the IC50 stood at 180 nM.
Molecule `COC(=O)Nc1cn(Cc2ccccc2)c(-c2cccc(C(F)(F)F)c2Cl)nc1=O` [II-053] had an IC50 of 71 nM.
Still for that read-out and setting: as for `COc1cn(Cc2cccc3ccccc23)c(-c2cccc(C(F)(F)F)c2Cl)nc1=O` [II-055], the figure is 20 nM; as for `COc1cn(Cc2ccccc2)c(-c2cccc(Cl)c2Cl)nc1=O` [II-056], 130 nM; as for `COc1cn(Cc2ccccc2)c(C2=CCC3(CC2)CC3)nc1=O` [II-073], 630 nM.
The same measure, in the same setting: to `O=c1ccn(CC2CCCCC2)c(-c2cccc(C(F)(F)F)c2Cl)n1` [II-077] belongs 610 nM.

Staying with this assay, now noted: antagonistic activity for the human P2X7 receptor, 1321N1 cell transfected with the human P2X7 receptor gene, Yo-Pro fluorescence, class symbols.
For `COc1cn(Cc2cccc(C)c2)c(-c2cccc(C(F)(F)F)c2Cl)nc1=O` [II-017], the IC50 lay in the range of 100 to 500 nM.
`COc1cn(Cc2ccccn2)c(-c2cccc(C(F)(F)F)c2Cl)nc1=O` [II-018] came in with an IC50 of 100 to 500 nM.
On the same count and under the same terms, as for `COc1cn(Cc2cccc(CO)c2)c(-c2cccc(C(F)(F)F)c2Cl)nc1=O` [II-019], the figure is 50 to 100 nM; as for `COc1cn(Cc2ccncc2)c(-c2cccc(C(F)(F)F)c2Cl)nc1=O` [II-020], 1000 to 10000 nM.
The same measure, in the same setting: to `CC(C)Oc1cn(Cc2ccccc2)c(-c2cccc(C(F)(F)F)c2Cl)nc1=O` [II-021] belongs 50 to 100 nM.
On the same count and under the same terms, to `N#CCOc1cn(Cc2ccccc2)c(-c2cccc(C(F)(F)F)c2Cl)nc1=O` [II-022] belongs less than 50 nM.
The molecule `O=c1nc(-c2cccc(C(F)(F)F)c2Cl)n(Cc2ccccc2)cc1OCc1ccccc1` [II-023] showed an IC50 of less than 50 nM.
With `CCOc1cn(Cc2ccccc2)c(-c2cccc(C(F)(F)F)c2Cl)nc1=O` [II-024], the 50% inhibitory concentration (IC50) was in the range of 50 to 100 nM.
Regarding `O=c1nc(-c2cccc(C(F)(F)F)c2Cl)n(Cc2ccccc2)cc1OCCO` [II-025], the IC50 was in the range of 50 to 100 nM.
Still for that read-out and setting: as for `COc1cn(Cc2cccnc2C)c(-c2cccc(C(F)(F)F)c2Cl)nc1=O` [II-026], the figure is 50 to 100 nM.
On the same count and under the same terms, to `NCCOc1cn(Cc2ccccc2)c(-c2cccc(C(F)(F)F)c2Cl)nc1=O` [II-027] belongs 500 to 1000 nM.
Same read-out and setting: to `CN(C)CCOc1cn(Cc2ccccc2)c(-c2cccc(C(F)(F)F)c2Cl)nc1=O` [II-028] belongs 500 to 1000 nM.
As to `CC1(COc2cn(Cc3ccccc3)c(-c3cccc(C(F)(F)F)c3Cl)nc2=O)COC1` [II-029], the IC50 was in the range of 100 to 500 nM.
Still for that read-out and setting: as for `CC(=O)COc1cn(Cc2ccccc2)c(-c2cccc(C(F)(F)F)c2Cl)nc1=O` [II-034], the figure is 50 to 100 nM; as for `O=c1nc(-c2cccc(C(F)(F)F)c2Cl)n(Cc2ccccc2)cc1OC(F)F` [II-035], 100 to 500 nM; as for `O=c1nc(-c2cccc(C(F)(F)F)c2Cl)n(Cc2ccccc2)cc1C(F)(F)F` [II-036], 100 to 500 nM.
`N#Cc1cn(Cc2ccccc2)c(-c2cccc(C(F)(F)F)c2Cl)nc1=O` [II-037] registered an IC50 of less than 50 nM.
The molecule `NC(=O)c1cn(Cc2ccccc2)c(-c2cccc(C(F)(F)F)c2Cl)nc1=O` [II-038] returned an IC50 of 500 to 1000 nM.
`COc1cn(C(C)c2ccccc2)c(-c2cccc(C(F)(F)F)c2Cl)nc1=O` (stereo not shown) [II-039] displayed an IC50 of 50 to 100 nM.
On the same count and under the same terms, as for `C#CCOc1cn(Cc2ccccc2)c(-c2cccc(C(F)(F)F)c2Cl)nc1=O` [II-040], the figure is less than 50 nM; as for `CC(C#N)Oc1cn(Cc2ccccc2)c(-c2cccc(C(F)(F)F)c2Cl)nc1=O` (stereo not shown) [II-041], less than 50 nM.
In turn, `CC(C)(C)OC(=O)Nc1cn(Cc2ccccc2)c(-c2cccc(C(F)(F)F)c2Cl)nc1=O` [II-042] displayed an IC50 of 50 to 100 nM.
The same measure, in the same setting: to `N#CCNc1cn(Cc2ccccc2)c(-c2cccc(C(F)(F)F)c2Cl)nc1=O` [II-043] belongs 50 to 100 nM; to `CNc1cn(Cc2ccccc2)c(-c2cccc(C(F)(F)F)c2Cl)nc1=O` [II-044], 100 to 500 nM; to `CS(=O)(=O)Nc1cn(Cc2ccccc2)c(-c2cccc(C(F)(F)F)c2Cl)nc1=O` [II-047], 100 to 500 nM.
Molecule `O=c1ccn(Cc2ccccc2)c(-c2cccc(C(F)(F)F)c2Cl)n1` [II-048] came in with an IC50 of 100 to 500 nM.
On the same count and under the same terms, as for `N#Cc1cn(Cc2ccc(F)cc2)c(-c2cccc(C(F)(F)F)c2Cl)nc1=O` [II-049], the figure is 50 to 100 nM.
Still for that read-out and setting: as for `N#CCn1cc(-c2ccccc2)c(=O)nc1-c1cccc(C(F)(F)F)c1Cl` [II-050], the figure is 100 to 500 nM; as for `CN(C)c1cn(Cc2ccccc2)c(-c2cccc(C(F)(F)F)c2Cl)nc1=O` [II-051], 100 to 500 nM.
On to `COc1cn(Cc2cccc3ncccc23)c(-c2cccc(C(F)(F)F)c2Cl)nc1=O` [II-052], for which the half-maximal inhibitory concentration (IC50) is less than 50 nM.
With `O=C(Nc1cn(Cc2ccccc2)c(-c2cccc(C(F)(F)F)c2Cl)nc1=O)OCC(F)(F)F` [II-054], the IC50 lay in the range of 100 to 500 nM.
Molecule `COc1cn(Cc2ccccc2C)c(C2=CCCCC2)nc1=O` [II-057] registered an IC50 of 1000 to 10000 nM.
In turn, `COc1cn(Cc2ccccc2C)c(-c2ccccc2)nc1=O` [II-058] registered an IC50 of 1000 to 10000 nM.
On the same count and under the same terms, as for `COc1cn(Cc2ccccc2C)c(-c2cccc(Cl)c2)nc1=O` [II-059], the figure is 1000 to 10000 nM; as for `COc1cn(Cc2ccccc2C)c(-c2ccc(Cl)cc2)nc1=O` [II-060], 1000 to 10000 nM; as for `COc1cn(Cc2ccccc2C)c(-c2ccccc2F)nc1=O` [II-061], 1000 to 10000 nM.
Same read-out and setting: as for `COc1cn(Cc2ccccc2C)c(-c2cccc(F)c2)nc1=O` [II-062], the figure is 1000 to 10000 nM; as for `COc1cn(Cc2ccccc2C)c(-c2ccc(F)cc2)nc1=O` [II-063], 1000 to 10000 nM.
With `COc1cn(Cc2ccccc2C)c(-c2ccccc2C(F)(F)F)nc1=O` [II-064], the IC50 is 500 to 1000 nM.
On to `COc1cn(Cc2ccccc2C)c(-c2cccc(C(F)(F)F)c2)nc1=O` [II-065], for which the concentration for half-maximal inhibition (IC50) was 100 to 500 nM.
The same measure, in the same setting: as for `COc1cn(Cc2ccccc2C)c(-c2ccc(C(F)(F)F)cc2)nc1=O` [II-066], the figure is 1000 to 10000 nM; as for `COc1cn(Cc2ccccc2C)c(-c2ccc(-c3ccccc3)cc2)nc1=O` [II-067], 1000 to 10000 nM.
Same read-out and setting: as for `COc1cn(Cc2ccccc2C)c(-c2cccc(-c3ccccc3)c2)nc1=O` [II-068], the figure is 1000 to 10000 nM; as for `COc1cn(Cc2ccccc2)c(C2=CCCCCC2)nc1=O` [II-069], 1000 to 10000 nM; as for `COc1cn(Cc2ccccc2)c(-c2cnn(Cc3ccccc3)c2)nc1=O` [II-070], 1000 to 10000 nM.
Same read-out and setting: to `COc1cn(Cc2ccccc2)c(C2=C[C@H]3CC[C@@H]2C3)nc1=O` [II-071] belongs 1000 to 10000 nM; to `COc1cn(Cc2ccccc2)c(C2=CCSCC2)nc1=O` [II-072], 1000 to 10000 nM.
Regarding `COc1cn(Cc2ccccc2C)c(-c2ccccc2Cl)nc1=O` [II-074], the IC50 lay in the range of 500 to 1000 nM.
Molecule `O=c1ccn(CCc2ccccc2)c(-c2cccc(C(F)(F)F)c2Cl)n1` [II-076] returned a 50% inhibitory concentration (IC50) of 1000 to 10000 nM.
Take `COc1cn(Cc2ccccc2)c(-c2cccc(F)c2F)nc1=O` [II-078]: the IC50 was 500 to 1000 nM.
